Laboratory results: patent US5763464A, “Retroviral agents containing anthranilamide, substituted benzamide and other subunits, and methods of using same” (The United States of America as represented by the …, priority 1995, dated 1998)
“Also recorded” adds a separate entry of the source. Read-outs that look alike come from different tables or passages of the source. Values belong to the molecule of their own block, whether it stands above or below them.

Columns and labels:
[1] = system: HIV-1 (CEM cells chronically infected with HIV-1); assay: Anti-retroviral activity in CEM cells chronically infected with HIV-1, soluble formazan assay; assay type: cell-based; conditions: Human immunodeficiency virus 1, CCRF-CEM
Procedure: Using the soluble formazan assay described by Weislow et al. (J. Nat'l. Cancer Inst., 81, 577-586 (1989)), CEM cells chronically infected with HIV-1 were used to assay the anti-retroviral activity of test compounds described herein. The concentration of compound that inhibits 50% of viral activity (EC50; determined as described in Weislow et al. (1989), supra) and the inhibition constant (Ki, as defined in Example 7) for the compound were determined.

HIV-1 = conditions: cited from earlier work
in vitro = conditions: human, cem cells
CEM cells = assay: Toxicity (IC50) in CEM cells, soluble formazan assay
[2] = target: T1, HIV-1 protease (wild-type, WT) (Human immunodeficiency virus type 1 group M subtype B, UniProt P04585); assay: biochemical
T1 construct: purified HIV-1 protease (wild-type, WT)
Procedure: The inhibition constants (Ki) for the compounds of the above examples were determined using purified HIV-1 protease (wild-type, WT) (Tables I, II and III). Ki is an inhibition constant of a given compound as derived by enzyme kinetics. A low Ki represents a high affinity of the compound for the enzyme, i.e., tight binding or low dissociation. Inhibition of the cleavage was assayed using a fluorogenic substrate available from Molecular Probes, Inc., Eugene, Oreg., and described in Kageyama et al., Antimicrob. Agents. Chemother., 37, 272 (1993), and a fluorogenic substrate available from Bachem California, Torrance, Calif., and described in Kageyama et al. (1993), supra. Percent inhibition is the percentage inhibition of an enzyme's activity by a given compound at a given concentration.

α-1 acid glycoprotein = assay: In vitro activity in the presence of α-1 acid glycoprotein
[3] = Toxicity (IC50) in CEM cells, soluble formazan assay; conditions: human, cem cells
[4] = comparison table, read-out: EC50
[5] = Table I, unit inferred, read-out: Ki
[6] = comparison table, literature values by footnote

SMILES: CC(C)[C@H](NC(=O)N(C)Cc1ccccn1)C(=O)N[C@@H](Cc1ccccc1)[C@H](O)[C@H](O)[C@H](Cc1ccccc1)NC(=O)[C@@H](NC(=O)N(C)Cc1ccccn1)C(C)C [A-77003, reference compound]
EC50 [1, 4]: 140 nM
EC50 (HIV-1; Example 13, literature values): 200 nM
selectivity ratio (in vitro): > 71
IC50 (CEM cells; Homo sapiens, CCRF-CEM): > 10000 nM

SMILES: Cc1c(O)cccc1C(=O)N[C@@H](Cc1ccccc1)[C@H](O)[C@H](O)[C@H](Cc1ccccc1)NC(=O)O[C@H]1CCOC1 [AN-76]
Ki [2]: 2 nM
EC50 ([1]; Table I): 7500 nM
IC50 (CEM cells; Homo sapiens, CCRF-CEM): > 50000 nM

SMILES: Cc1c(O)cccc1C(=O)N[C@@H](Cc1ccccc1)[C@@H](O)[C@@H](O)[C@H](Cc1ccccc1)NC(=O)O[C@H]1CCOC1 [AN-78]
Ki [2]: 1.43 nM
EC50 ([1]; Table I): 21000 nM
IC50 (CEM cells; Homo sapiens, CCRF-CEM): > 50000 nM

Ki [2, 5]: 0.46 nM
EC50 ([1]; Table I, read-out: EC50): 1300 nM
SMILES: Cc1c(O)cccc1C(=O)N[C@@H](Cc1ccccc1)[C@@H](O)C[C@H](Cc1ccccc1)NC(=O)OCc1cccnc1 [AN-92, (2S,3S,5S)-2-[N-[(3-hydroxy-2-methylphenyl)carbonyl]amino]-5-[N-[(3-pyridinylmethoxy)carbonyl]amino]-1,6-diphenyl-3-hydroxy hexane]
IC50 (CEM cells; Homo sapiens, CCRF-CEM): > 100000 nM

SMILES: Cc1c(O)cccc1C(=O)N[C@@H](Cc1ccccc1)[C@@H](O)C[C@H](Cc1ccccc1)NC(=O)c1cccc(N)c1 [AN-96, (2S,3S,5S)-2-[N-[(3-hydroxy-2-methylphenyl)carbonyl]amino]-5-[N-(3-aminophenyl)carbonyl]amino-1,6-diphenyl-3-hydroxy hexane]
Ki [2]: 0.75 nM
EC50 ([1]; Table I): 630 to 58000 nM
IC50 (CEM cells; Homo sapiens, CCRF-CEM): > 100000 nM

Ki [2, 5]: 0.32 nM
EC50 ([1]; Table I, read-out: EC50): 630 to 1000 nM
SMILES: Cc1c(O)cccc1C(=O)N[C@@H](Cc1ccccc1)[C@@H](O)C[C@H](Cc1ccccc1)NC(=O)O[C@H]1CCOC1 [AN-98]
IC50 (CEM cells; Homo sapiens, CCRF-CEM): > 100000 nM

SMILES: Cc1c(O)cccc1C(=O)N[C@@H](Cc1ccccc1)C[C@H](O)[C@H](Cc1ccccc1)NC(=O)c1cccc(O)c1C [DD-8]
Ki ([2]; read-out: Ki): 0.8 nM
EC50 ([1]; Table I, read-out: EC50): 400 nM
IC50 (CEM cells; Homo sapiens, CCRF-CEM): 22000 nM

Ki ([2]; Table II, read-out: Ki): 1.77 nM
EC50 ([1]; Table II, read-out: EC50): 900 nM
SMILES: O=C(Nc1ccccc1C(=O)N[C@@H](Cc1ccccc1)[C@@H](O)[C@@H](O)[C@H](Cc1ccccc1)NC(=O)c1cccc(O)c1)OCc1ccccn1 [DN-4]
IC50 (CEM cells; Homo sapiens, CCRF-CEM): 9000 to 28000 nM

SMILES: CC(C)(C)OC(=O)N[C@@H](Cc1ccccc1)[C@@H](O)[C@@H](O)[C@H](Cc1ccccc1)NC(=O)c1ccccc1NC(=O)OCc1ccccn1 [DN-11]
Ki ([2]; Example 2, read-out: Ki): 0.4 nM
Ki ([2]; Table II, read-out: Ki): 0.45 nM
EC50 ([1]; Table II, read-out: EC50): 490 nM
IC50 (CEM cells; Homo sapiens, CCRF-CEM): 21000 nM

SMILES: CC(C)C(NC(=O)OCc1ccccc1)C(=O)N[C@@H](Cc1ccccc1)[C@@H](O)[C@@H](O)[C@H](Cc1ccccc1)NC(=O)c1ccccc1NC(=O)OCc1ccccn1 (some centres unmarked) [DN-14]
EC50 ([1]; Example 13, CEM cells): 6.5 nM
EC50 ([1]; comparison table): 6 nM
in vitro activity in presence of α-1 acid glycoprotein (α-1 acid glycoprotein): not affected by the presence of α-1 acid glycoprotein; also recorded: unaffected in the presence of α-1 acid glycoprotein
selectivity ratio [3]: > 16700
toxicity (from IC50/EC50) (CEM cells; Example 13): not toxic
IC50 (CEM cells; Example 13, unit inferred): > 100000 nM
IC50 (CEM cells; Homo sapiens, CCRF-CEM): > 100000 nM
IC50 (CEM cells; comparison table): > 100000 nM

SMILES: Cc1c(O)cccc1C(=O)N[C@@H](Cc1ccccc1)[C@H](O)[C@H](O)[C@H](Cc1ccccc1)NC(=O)c1cccc(O)c1C [Diol-52]
Ki [2, 5]: 1.2 nM
EC50 ([1]; Table I): 900 nM
IC50 (CEM cells; Homo sapiens, CCRF-CEM): 25000 nM

SMILES: CC(C)(C)NC(=O)[C@@H]1CN(Cc2cccnc2)CCN1C[C@@H](O)C[C@@H](Cc1ccccc1)C(=O)N[C@H]1c2ccccc2C[C@H]1O [Indinavir]
EC50 (HIV-1; [6]): 50 nM

SMILES: CSC[C@H](NC(=O)COc1cccc2cnccc12)C(=O)N[C@@H](Cc1ccccc1)[C@H](O)C(=O)N1CSC[C@H]1C(=O)NC(C)(C)C [KNI-272, reference compound]
EC50 ([1]; Example 13, CEM cells, read-out: EC50): 4.2 nM
EC50 [1, 4]: 28 nM
selectivity ratio (in vitro): > 3570
IC50 (CEM cells; Homo sapiens, CCRF-CEM): > 100000 nM

Ki ([2]; Table II, read-out: Ki): 0.034 nM
EC50 ([1]; Table II, read-out: EC50): 490 nM
SMILES: CC(C)C(NC(=O)OCc1ccccn1)C(=O)N[C@@H](Cc1ccccc1)C[C@H](O)[C@H](Cc1ccccc1)NC(=O)c1ccccc1NC(=O)OCc1ccccn1 (some centres unmarked) [LL-68]
IC50 (CEM cells; Homo sapiens, CCRF-CEM): 22000 nM

SMILES: Cc1c(O)cccc1C(=O)N[C@@H](Cc1ccccc1)[C@@H](O)C[C@H](Cc1ccccc1)NC(=O)c1ccccc1NC(=O)OCc1ccccn1 [LL-82, (2S,3S,5S)-2-[N-[(3-hydroxy-2-methylphenyl)carbonyl]amino]-5-[N-[N-[(2-pyridinylmethoxy)carbonyl]anthranilyl]amino]-1,6-diphenyl-3-hydroxy hexane]
Ki [2]: 0.06 ± 0.018 nM
EC50 ([1]; Table III): 33 nM
IC50 (CEM cells; Homo sapiens, CCRF-CEM): 40000 nM

SMILES: O=C(N[C@@H](Cc1ccccc1)C[C@H](O)[C@H](Cc1ccccc1)NC(=O)O[C@H]1CCOC1)O[C@H]1CCOC1 [RS-194]
Ki [2]: 1.68 nM
EC50 ([1]; Table I): 6500 nM
IC50 (CEM cells; Homo sapiens, CCRF-CEM): > 50000 nM

Ki [2, 5]: 0.66 nM
EC50 ([1]; Table I, read-out: EC50): 1300 nM
SMILES: Cc1c(O)cccc1C(=O)N[C@@H](Cc1ccccc1)[C@@H](O)[C@@H](O)[C@H](Cc1ccccc1)NC(=O)OC(C)(C)C [RS-199]
IC50 (CEM cells; Homo sapiens, CCRF-CEM): > 50000 nM

SMILES: O=C(N[C@@H](Cc1ccccc1)[C@H](O)[C@H](O)[C@H](Cc1ccccc1)NC(=O)O[C@H]1CCOC1)O[C@H]1CCOC1 [RS-205]
Ki [2]: 4.6 nM
EC50 ([1]; Table I): 16000 nM
IC50 (CEM cells; Homo sapiens, CCRF-CEM): > 150000 nM

Ki [2, 5]: 0.213 nM
EC50 ([1]; Table I, read-out: EC50): 470 nM
SMILES: Cc1c(O)cccc1C(=O)N[C@@H](Cc1ccccc1)[C@@H](O)C[C@H](Cc1ccccc1)NC(=O)OC(C)(C)C [RS-208, (2S,3S,5S)-2-[N-[(3-hydroxy-2-methylphenyl)carbonyl]amino]-5-[N-(tert-butyloxycarbonyl)amino]-1,6-diphenyl-3-hydroxy hexane]
IC50 (CEM cells; Homo sapiens, CCRF-CEM): 23000 nM

SMILES: CC(C)c1nc(CN(C)C(=O)N[C@H](C(=O)N[C@@H](Cc2ccccc2)C[C@H](O)[C@H](Cc2ccccc2)NC(=O)OCc2cncs2)C(C)C)cs1 [Ritonavir]
EC50 (HIV-1; Example 13, literature values): 36 nM
EC50 (HIV-1; [6]): 36 nM

SMILES: CC(C)(C)NC(=O)[C@@H]1C[C@@H]2CCCC[C@@H]2CN1C[C@@H](O)[C@H](Cc1ccccc1)NC(=O)[C@H](CC(N)=O)NC(=O)c1ccc2ccccc2n1 [Sequinavir]
EC50 (HIV-1; Example 13, literature values): 10 nM
EC50 (HIV-1; [6]): 10 nM

SMILES: CC(C)CN(C[C@@H](O)[C@H](Cc1ccccc1)NC(=O)O[C@H]1CCOC1)S(=O)(=O)c1ccc(N)cc1 [VX-478]
EC90 (HIV-1; comparison table, Kim et al., 1995, read-out: EC90 (EC50 column, footnote b)): 40 nM
